The results in this text go back to patent US8648076B2, “Cysteine protease inhibitors and their therapeutic applications” (Hybrigenics SA, priority 2005, dated 2014).

Where two headings read alike, the source gives them in different places.

One test has as its target T1, Caspase 3 (Homo sapiens, UniProt P42574).
T1 sequence (P42574 29-175 limits assumed): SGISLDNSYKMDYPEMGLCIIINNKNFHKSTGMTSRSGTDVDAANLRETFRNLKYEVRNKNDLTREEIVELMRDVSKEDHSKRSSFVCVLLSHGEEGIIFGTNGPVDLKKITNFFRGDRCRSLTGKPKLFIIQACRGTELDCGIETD
T1 sequence (P42574 176-277 limits assumed): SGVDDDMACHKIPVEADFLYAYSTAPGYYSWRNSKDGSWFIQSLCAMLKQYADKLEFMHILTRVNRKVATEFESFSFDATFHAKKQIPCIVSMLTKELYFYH
Nature of the test: Caspase 3 activity assay. To be noted: 500 nM Ac-DEVD-AMC, 3.2 nM enzyme, 30 min pre-incubation at 25° C., 60 min at 37° C.; sigmoidal fit; AF: Autofluorescent; read-out: Casp3 (inhibition of cysteine protease activity). The test is classed as biochemical. The procedure: Compounds stocks (100 mM) were stored at −20° C. in DMSO. […] Reactions were performed as duplicates in Black LJL 96 well plates (HE microplates; Molecular Devices; 20 μl final reaction volume). The substrate concentration for caspase 3 specificity assay was 500 nM (Ac-DEVD-AMC; Promega). […] The concentrations were determined in order to perform specificity assays under initial velocities at fixed substrate concentration. Compounds were pre-incubated with enzymes for 30 minutes at 25° C. Reactions were initiated by addition of substrate to the plates containing the enzymes (+/−compounds) diluted in assay buffer. Reactions were incubated for 60 minutes at 37° C. Reactions were stopped by adding acetic acid (100 mM final). Readings were performed on a Pherastar Fluorescent Reader (BMG). δ Emission 380 nm; δ Excitation=460 nm. Data (mean values+/− standard deviation) were analyzed as % of control (no compound) and plotted as percentage versus the Log of the compound concentration using GraphPad (Prism). Data were fitted to a sigmoidal model (variable slope).

The next test deals with T2, Uch-L3 (Homo sapiens, UniProt P15374).
T2 sequence (P15374 1-230): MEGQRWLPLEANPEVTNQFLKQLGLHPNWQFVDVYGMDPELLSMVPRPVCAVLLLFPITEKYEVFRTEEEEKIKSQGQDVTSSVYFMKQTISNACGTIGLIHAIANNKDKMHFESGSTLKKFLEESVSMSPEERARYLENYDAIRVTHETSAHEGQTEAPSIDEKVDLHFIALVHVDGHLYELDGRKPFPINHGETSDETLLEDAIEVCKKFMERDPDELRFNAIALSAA
The test can be described thus: UCH-L3 activity assay. Type of test: biochemical. The settings on record: 400 nM Ub-AMC, 13 pM enzyme, 30 min pre-incubation at 25° C., 60 min at 37° C.; sigmoidal fit; AF: Autofluorescent; read-out: Uch-L3 (inhibition of cysteine protease activity). The gist of the method:
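Compounds were pre-incubated with 13 pM Uch-L3 for 30 min at 25° C in pH 7.6 buffer with 0.05 mg/ml BSA. Reactions ran 60 min at 37° C with 400 nM Ub-AMC, were stopped with 100 mM acetic acid, and AMC fluorescence was read. Duplicates were expressed as % of no-compound control and fitted to a variable-slope sigmoid.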

Test [1] deals with HCT116 colon cancer cells. Nature of the test: HCT116 cell viability and proliferation assay (MTS). The test is classed as cell-based. To be noted: Homo sapiens, read-out: HCT116 D3 GI50.
In test [2] the test system is PC-3 prostate cancer cells. The test can be described thus: PC3 cell viability and proliferation assay (MTS). The test is classed as cell-based. To be noted: Homo sapiens, PC-3, 72 h, read-out: PC3 D3 GI50.
Another test has as its target T3, USP8 (Homo sapiens, UniProt P40818).
T3 sequence (P40818 1-1118): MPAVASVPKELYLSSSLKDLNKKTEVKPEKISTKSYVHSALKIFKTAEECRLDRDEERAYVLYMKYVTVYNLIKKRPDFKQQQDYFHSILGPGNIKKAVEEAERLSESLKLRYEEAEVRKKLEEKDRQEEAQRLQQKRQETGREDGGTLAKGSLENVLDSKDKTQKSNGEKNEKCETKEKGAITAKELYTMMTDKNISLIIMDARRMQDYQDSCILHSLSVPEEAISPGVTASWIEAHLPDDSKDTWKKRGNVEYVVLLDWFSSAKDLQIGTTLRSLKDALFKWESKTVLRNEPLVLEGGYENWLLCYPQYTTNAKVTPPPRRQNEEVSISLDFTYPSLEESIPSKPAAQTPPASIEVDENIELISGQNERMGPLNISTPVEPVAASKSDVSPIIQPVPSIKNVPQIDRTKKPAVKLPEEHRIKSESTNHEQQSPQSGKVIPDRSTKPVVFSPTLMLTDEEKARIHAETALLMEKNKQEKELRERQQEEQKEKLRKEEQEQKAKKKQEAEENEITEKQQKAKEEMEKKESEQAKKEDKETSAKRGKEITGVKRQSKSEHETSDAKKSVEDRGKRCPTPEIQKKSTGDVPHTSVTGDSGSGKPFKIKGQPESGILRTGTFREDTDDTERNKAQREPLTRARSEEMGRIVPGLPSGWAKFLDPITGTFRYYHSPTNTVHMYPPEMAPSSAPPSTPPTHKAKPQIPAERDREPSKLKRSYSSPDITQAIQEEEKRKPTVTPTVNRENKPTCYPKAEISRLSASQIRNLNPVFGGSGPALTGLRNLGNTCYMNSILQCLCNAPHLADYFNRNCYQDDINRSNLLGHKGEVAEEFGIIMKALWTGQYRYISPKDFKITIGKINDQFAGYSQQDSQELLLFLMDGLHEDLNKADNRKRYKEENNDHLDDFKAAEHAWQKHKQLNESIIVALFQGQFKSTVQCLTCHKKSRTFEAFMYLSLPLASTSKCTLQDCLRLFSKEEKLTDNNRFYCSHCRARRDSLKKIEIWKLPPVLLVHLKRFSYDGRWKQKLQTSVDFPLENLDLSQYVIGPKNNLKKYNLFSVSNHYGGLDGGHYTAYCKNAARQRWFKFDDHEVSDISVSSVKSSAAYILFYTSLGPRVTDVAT
The test can be described thus: USP8 activity assay. The test is classed as biochemical. The settings on record: 400 nM Ub-AMC, pH8.8, 30 min pre-incubation at 25° C., 60 min at 37° C.; sigmoidal fit; AF: Autofluorescent; read-out: USP 8 (inhibition of cysteine protease activity).

The mark [3] stands for this setting: HCT-116, HCT116 cells, 72 hours incubation, MTS, mean of 3 independent experiments.
Where [4] appears, read: PC3 cells, 72 hours incubation, MTS, mean of 3 independent experiments.

As to `COc1ccc2c(c1OC)C(=O)c1nc(C#N)c(C#N)nc1-2` [Example 17d, 7,8-Dimethoxy-9-oxo-9H-indeno[1,2-b]pyrazine-2,3-dicarbonitrile], the IC50 on Caspase 3 is 1800 nM; at Uch-L3 it was 770 nM; on USP8 it was 710 nM. In addition, the GI50 amounted to 680 nM in test [1] (setting [3]) and 910 nM in test [2] (setting [4]).

As to `Cc1ccc2c(c1)-c1nc(C#N)c(C#N)nc1C2=O` [Example 17e, 6-Methyl-9-oxo-9H-indeno[1,2-b]pyrazine-2,3-dicarbonitrile], the IC50 came out at 3300 nM on Caspase 3, 2100 nM at Uch-L3 and 930 nM on USP8. For the same compound, the GI50 was found to be 300 nM in test [1] (setting [3]) and 1320 nM in test [2] (setting [4]).

On to `COc1ccc(OC)c2c1C(=O)c1nc(C#N)c(C#N)nc1-2` [Example 17f, 5,8-Dimethoxy-9-oxo-9H-indeno[1,2-b]pyrazine-2,3-dicarbonitrile], for which the IC50 on Caspase 3 was found to be 2000 nM; at Uch-L3, 600 nM; at USP8, 810 nM. Moreover, the GI50 in test [1] (setting [3]) was 930 nM; in test [2] (setting [4]), 800 nM.

Take `N#Cc1nc2c(nc1C#N)-c1ccc(Cl)cc1C2=O` [Example 17g, 7-Chloro-9-oxo-9H-indeno[1,2-b]pyrazine-2,3-dicarbonitrile]: the IC50 on Caspase 3 amounted to 290 nM; on Uch-L3, 70 nM; on USP8, 96 nM. Besides, the GI50 in test [1] (setting [3]) amounted to 320 nM; in test [2] (setting [4]), 1110 nM.

Take `N#Cc1nc2c(nc1C#N)-c1ccc(F)cc1C2=O` [Example 17h, 7-Fluoro-9-oxo-9H-indeno[1,2-b]pyrazine-2,3-dicarbonitrile]: the IC50 at Caspase 3 was 1000 nM; on Uch-L3, 330 nM; at USP8, 250 nM. Also, the GI50 worked out at 160 nM in test [1] (setting [3]) and 570 nM in test [2] (setting [4]).

As for `COc1ccc2c(c1)C(=O)c1nc(C#N)c(C#N)nc1-2` [Example 17i, 7-Methoxy-9-oxo-9H-indeno[1,2-b]pyrazine-2,3-dicarbonitrile], the IC50 was 2000 nM on Caspase 3, 3100 nM on Uch-L3 and 2100 nM at USP8. For the same compound, the GI50 in test [1] (setting [3]) is 560 nM; in test [2] (setting [4]), 1270 nM.

`N#Cc1nc2c(nc1C#N)-c1ccc(O)cc1C2=O` [Example 17j, 7-Hydroxy-9-oxo-9H-indeno[1,2-b]pyrazine-2,3-dicarbonitrile]: the IC50 is 47000 nM on Caspase 3, 8000 nM at Uch-L3 and greater than 100000 nM on USP8. The GI50 in test [1] (setting [3]) and in test [2] (setting [4]) was greater than 10000 nM throughout.

On to `N#Cc1nc2sc3ccccc3c2nc1C#N` [Example 19, benzo[4,5]thieno[2,3-b]pyrazine-2,3-dicarbonitrile], for which the IC50 at Caspase 3, on Uch-L3 and on USP8 was greater than 100000 nM each time. Further, the GI50 in test [1] (setting [3]) came out at 10000 nM; in test [2] (setting [4]) it was 4200 nM.

For the compound `N#Cc1nc2c(nc1C#N)C(=O)c1ccccc1C2=O` [Example 20, 5,10-dioxo-5,10-dihydro-benzo[g]quinoxaline-2,3-dicarbonitrile], the results for the IC50 at Caspase 3, at Uch-L3 and at USP8 were greater than 100000 nM, 39600 nM and greater than 100000 nM, respectively. Moreover, the GI50 in test [1] (HCT-116, 72 h) amounted to 780 nM; in test [2], 1260 nM.

Regarding `N#CNc1nc2c(nc1C#N)C(=O)c1ccccc1-2` [Example 21, 2-cyano-9-oxo-9H-indeno[1,2-b]pyrazin-3-yl-cyanamide], the IC50 at Caspase 3, at Uch-L3 and at USP8 was greater than 100000 nM throughout. For the same compound, the GI50 in test [1] (setting [3]) and in test [2] (setting [4]) was greater than 10000 nM throughout.

Consider `CCSc1nc2c(nc1C#N)C(=O)c1ccccc1-2` [Example 23, 3-ethylsulfanyl-9-oxo-9H-indeno[1,2-b]pyrazine-2-carbonitrile], for which the IC50 is greater than 100000 nM on Caspase 3, 86000 nM at Uch-L3 and 46000 nM on USP8. Moreover, the GI50 in test [1] (setting [3]) and in test [2] (setting [4]) was greater than 10000 nM throughout.

`N#Cc1nc2c(nc1C#N)-c1ccccc1C2=NOCCOc1ccccc1` [Example 27a, 9-(2-Phenoxy-ethoxyimino)-9H-indeno[1,2-b]pyrazine-2,3-dicarbonitrile]: the IC50 on Caspase 3 was greater than 100000 nM; on Uch-L3 it was 10500 nM; on USP8, 2300 nM. The GI50 in test [1] (HCT-116, 72 h) is 549 nM; in test [2] it was 1000 nM.

As to `N#Cc1nc2c(nc1C#N)-c1ccc(Cl)cc1C2=NOCCOc1ccccc1` [Example 27b, 7-Chloro-9-(2-phenoxy-ethoxyimino)-9H-indeno[1,2-b]pyrazine-2,3-dicarbonitrile], the values for the IC50 at Caspase 3, on Uch-L3 and on USP8 were greater than 100000 nM, 1700 nM and 11300 nM, respectively. For the same compound, the GI50 came to 294 nM in test [1] (HCT-116, 72 h) and 259 nM in test [2].

Take `C=CCON=C1c2ccc(Cl)cc2-c2nc(C#N)c(C#N)nc21` [Example 27c, 9-Allyloxyimino-6-chloro-9H-indeno[1,2-b]pyrazine-2,3-dicarbonitrile]: the IC50 at Caspase 3 is 2830 nM; on Uch-L3, 502 nM; at USP8, 201 nM. The GI50 in test [1] (HCT-116, 72 h) came to 421 nM; in test [2] it was 803 nM.

On to `Cc1c(F)ccc2c1C(=O)c1nc(C#N)c(C#N)nc1-2` [Example 30, 7-Fluoro-8-methyl-9-oxo-9H-indeno[1,2-b]pyrazine-2,3-dicarbonitrile], for which the IC50 on Caspase 3 turned out to be 1070 nM; on Uch-L3, 339 nM; at USP8, 316 nM. For the same compound, the concentration for 50% growth inhibition (GI50) in test [1] (setting [3]) worked out at 705 nM; in test [2] (setting [4]) it was 854 nM.

On to `N#Cc1nc2c(nc1C#N)-c1cc(Cl)c(Cl)cc1C2=O` [Example 31, 6,7-dichloro-9-oxo-9H-indeno[1,2-b]pyrazine-2,3-dicarbonitrile], for which the values for the IC50 on Caspase 3, at Uch-L3 and on USP8 were 158 nM, 104 nM and 76 nM, respectively. For the same compound, the GI50 stood at 753 nM in test [1] (HCT-116, 72 h) and 2430 nM in test [2].

As usually defined, the GI50 is the concentration at which growth is held to half of that of the control.
